According to a melting point compilation (Tetko et al.; mined from patent text by program, amines drawn as free bases though some values may be those of a salt):

Row | Structure (SMILES) | melting point
1 | CNC(=O)NC1CCC(O)c2ccccc21 (stereo not drawn) | 172 to 180 °C
2 | NC(=O)NS(=O)(=O)c1cccc(Cl)c1Cl | 197 to 200 °C
3 | CCOC(=O)c1c(C(F)(F)F)nc(C(F)(F)F)c(C)c1O | 23 to 24.5 °C
4 | Cc1cncc(C)c1-c1c(C)cc(I)cc1C | 242 to 243 °C
5 | Cc1cc(Cl)c(C(N)=O)c(Cl)c1 | 101 to 107 °C
6 | O=c1[nH]c(=O)n(CCCN2CCN(C(c3ccccc3)c3ccccc3)CC2)c2ccccc12 | 261 to 264 °C
7 | CCOC(=O)C(=O)Nc1coc2cc(OC)ccc2c1=O | 218 to 220 °C
8 | COc1cc(C(=O)C=Cc2cc(O)c(O)c([N+](=O)[O-])c2)cc(OC)c1OC | 213 to 216 °C
9 | CCOC(=O)c1ccc(CCCOCCCCCCNCC(O)c2cc(Cl)c(N)c(Cl)c2)cc1 (stereo not drawn) | 66 to 68 °C
10 | CN1CCC(c2c(O)cc(O)c3c(=O)cc(-c4ccccc4Cl)oc23)C1Cn1ccnc1 (stereo not drawn) | 249 to 250 °C
11 | CCCCCCCCCCCCOc1cccc(C2=C(O)C(O)(Cc3ccccc3)N(C)C2=O)c1 (stereo not drawn) | 110 to 111 °C
12 | O=C(Nc1ccc2c(c1)OCO2)c1ccc([N+](=O)[O-])cc1 | 231 to 234 °C
13 | NCc1ccc(OCc2ccccc2)c(O)c1 | 122 to 125 °C
14 | OP(O)C1(NC(c2ccccc2)c2ccccc2)CCCC1 | 204 to 205 °C
15 | CCOC(c1cccc(OCc2nc(-c3ccccc3)oc2C)c1)c1ccc(OC)cc1OCC(=O)O (stereo not drawn) | 129 to 130 °C
16 | O=Cc1cc(Br)ccc1Oc1ccc(Cl)c(Cl)c1 | 129 to 132 °C
17 | Cc1cc(Nc2nc(Nc3ccc(N)cc3)nc3ccccc23)[nH]n1 | 164 to 167 °C
18 | CCOC(=O)c1cnn(-c2ccc(Br)cc2)c1C#N | 104 to 105 °C
19 | CCOC(=O)Cc1ccc(C(=O)c2ccccc2)cc1[N+](=O)[O-] | 61 to 62 °C
20 | COC(=O)CC1CCN(C(=O)C2CCN(c3ccc(C#N)cn3)CC2)CC1 | 112 to 115 °C
21 | CCOCCC(=Nc1ccc(Cl)cc1C(F)(F)F)n1ccnc1 | 61 to 62 °C
22 | CCCCCCC(=O)NCc1cccc2c1C(=O)N(C1CCC(=O)NC1=O)C2=O (stereo not drawn) | 130 to 132 °C
23 | O=C(O)CCCNC(=O)c1cccc(NC(=O)c2ccccc2O)c1 | 172 to 174 °C
24 | CCC(=O)Nc1cccc(C(=O)C=CN(C)C)c1 | 106 to 108 °C
25 | O=[N+]([O-])c1ccc2sc3ccc(F)cc3c2c1 | 200 to 202 °C
26 | COc1ccc(NC(=NC#N)N2CCn3c(c(C(N)=O)c(Cl)c3-c3ccccc3)C2)cc1 | 170 °C

Row | Structure (SMILES) | melting point
27 | COC(=O)c1cccc2c(Cl)c(OC)ccc12 | 125 °C
28 | CCCN(CCC)C1CCc2cccc(-c3ccc4ccccc4n3)c2C1 (stereo not drawn) | 82 °C
29 | CC(C)Nc1nc(Cl)nc(Cl)n1 | 46 to 47 °C
30 | CCOC(=O)c1c(CCl)nc2ccc(C)cc2c1-c1ccc(OC)c(OC)c1 | 125 to 126 °C
31 | COc1cc2nc(N3CCN(c4nc5cccccc-5n4)CC3)nc(N)c2cc1OC | 189 to 193 °C
32 | CCNc1nc(Nc2ccccc2)ncc1C(C)=CC(=O)OCC | 148 to 150 °C
33 | CCOC(=O)c1c(NCC(=O)c2ccc(C(F)(F)F)cc2)c2c(Cl)cc(Cl)cc2n1C(=O)OC(C)(C)C | 159 to 160 °C
34 | O=c1oc2ccc(-c3ccc(F)cc3F)cc2c(=O)n1-c1ccc(F)cc1F | 155 to 156 °C
35 | OCCCOC(c1ccccc1)(c1ccccc1)c1ccccc1 | 117 to 118 °C
36 | Oc1c(C2=CCCCC2)ccc2ccccc12 | 82 to 83 °C
37 | O=S(=O)(C(=CNc1ccccc1C(F)(F)F)S(=O)(=O)c1ccc(Cl)cc1)c1ccc(Cl)cc1 | 169 to 171 °C
38 | Clc1ccccc1C1=NCc2nnc(Cc3ccccc3)n2-c2sc3c(c21)CCNC3 | 192 °C
39 | Cc1ccc(C#N)cc1-c1cc2cnc(NC3CCOCC3)nc2n(C)c1=O | 254 °C
40 | N#CCCCCn1ccc(NC(=S)NCC(F)(F)F)n1 | 96 to 98 °C
41 | CC(C)(C)OC(=O)N[C@@H](Cc1ccccc1)c1nc2c(C(F)(F)F)cccc2c(=O)o1 | 145 °C
42 | COc1ccc(NC(=O)c2ccc(F)c(F)c2)cc1NS(=O)(=O)c1ccc([N+](=O)[O-])cc1 | 231 to 249 °C
43 | CCOC(=O)COc1cccc2c1CCc1sc(O)nc1-2 | 74 to 75 °C
44 | CC(=O)OC1CSC(Oc2ccc(-c3cccs3)nc2)C(OC(C)=O)C1OC(C)=O (stereo not drawn) | 172 °C
45 | CC(C)n1cc(-c2nc(C(N)=O)c(N)nc2-c2ccc(F)cc2)ccc1=O | 236 °C
46 | CCCCC(=O)c1ccc(-c2ccc(C(=O)Nc3ccc(OC)c(N4CCN(C)CC4)c3)cc2C)cc1 | 65 to 67 °C
47 | O=C(O)C(=O)NCCCCCC1CCSS1 (stereo not drawn) | 75 to 79 °C
48 | O=C(O)c1cn(Cc2csnn2)c2cc(F)c(F)cc2c1=O | 257 to 261 °C
49 | CN(C(=O)CBr)n1cccc1C(=O)c1ccccc1 | 76 to 78 °C
50 | N#Cc1cnn2c(C(F)(F)F)cc(-c3ccc(C(F)(F)F)c(F)c3)nc12 | 184 °C
51 | COCCn1nc(C)c(-c2ccc3c(c2)NC(=O)CO3)c1-c1ccc(F)cc1 | 174 °C
52 | CC(C)(C)c1cccc(S(=O)(=O)Nc2ccc(C(F)(F)F)nc2I)c1 | 125 °C

Row | Structure (SMILES) | melting point
53 | O=C(Nc1ccc(C(F)(F)F)cc1)NC1CCN(C(=O)c2cccnc2)CC1 | 213 to 217 °C
54 | Cc1ccc2c(n1)CCCC2(O)c1ccccc1 (stereo not drawn) | 130 to 134 °C
55 | CCCC=Cc1c(C(C)C)nc(C(C)C)c(CO)c1-c1cccc(Cl)c1 | 101 to 104 °C
56 | CCOC(=O)CC1(S(N)(=O)=O)c2cc(F)ccc2-c2ccc(F)cc21 | 215 to 217 °C
57 | O=C(O)COc1ccc(C(=O)c2ccc(Cl)c(Cl)c2)c(Cl)c1Cl | 165 to 167 °C
58 | COc1cc2c(cc1C(F)(F)F)N(C(=O)Nc1ccc3c(ccn3-c3ccncc3)c1)CC2 | 206 to 211 °C
59 | CC(C)C(=O)C(=Cc1ccccc1)C(=O)Nc1ccccc1 | 144 to 154 °C
60 | O=C(O)c1ccc(COc2ccc3cc(-c4ccc(-c5ccccc5)n4-c4ccccc4)ccc3c2)cc1 | 309 to 310 °C
61 | CCCc1c(OCCCOc2ccc(C#N)cc2Cl)ccc(C(C)=O)c1O | 96 to 97 °C
62 | Nc1cc(-n2cccn2)nc(-c2ccc(Br)o2)n1 | 221 to 222 °C
63 | CN1CN(C)C(=N[N+](=O)[O-])N(Cc2cnc(Cl)s2)C1 | 125 to 126 °C
64 | Clc1ccc(OCc2ccnc3ncnn23)cc1 | 193 to 194 °C
65 | CCCCCc1ccc(-c2ccc(CC#N)cc2)cc1 | 80 °C
66 | Oc1cnc2[nH]ccc2c1 | 206 to 209 °C
67 | NS(=O)(=O)c1ccc(C2CCN(c3cc([N+](=O)[O-])ccn3)CC2)cc1 | 215 to 217 °C
68 | CCOc1ccccc1-c1ccc(C(N)=O)c(=O)[nH]1 | 218 to 220 °C
69 | CC1(C)CC(=O)Oc2cc(O)ccc21 | 84 to 85 °C
70 | O=C(Oc1nc(Cl)c(Cl)cc1Cl)C(Cl)(Cl)Cl | 58 to 60 °C
71 | Cc1c(-c2ccncn2)nc2n(c1=O)CCCN2CC(=O)c1ccccc1 | 184 to 185 °C
72 | Cc1cc(NCc2ccccc2)c(N)c(Cl)n1 | 177 to 178 °C
73 | O=C(NC1Cc2cccc(-c3ccc(F)cc3)c2C1)c1ccc(F)cc1 (stereo not drawn) | 157 °C
74 | N#CCc1ccnc2c(NC(=O)c3c(Cl)cccc3Cl)cccc12 | 234 to 236 °C
75 | CCOC(=O)c1cc2cc(-c3ccccc3)ccc2nn1 | 160 to 162 °C
76 | ON=Cc1ccc(-c2ccc(Cl)cc2)o1 | 139 to 141 °C
77 | CC#CCOc1ccc(S(=O)(=O)C(C(=O)O)C2CCN(C(=O)c3ccccc3)CC2)cc1 (stereo not drawn) | 90 °C
78 | COc1ccc2nc(O)nc(O)c2c1 | > 290 °C

Row | Structure (SMILES) | melting point
79 | CCOC(=O)/C=C/c1cc(OCc2ccc(OCc3nc(-c4ccccc4)oc3C)c(OC)c2)nn1-c1ccccc1 | 121 to 122 °C
80 | CNc1cc(S(=O)(=O)c2ccccc2)ccn1 | 142 to 143 °C
81 | COc1ccc(C(=O)c2c(N)sc3c2CCSC3)cc1 | 178 to 179 °C
82 | CCCCOc1ccc(S(=O)(=O)C2(C(=O)O)CCN(C)CC2)cc1 | 118 °C
83 | S=c1[nH]c2ccc(-c3cccc(Cl)c3)cc2n1Cc1ccccc1 | 211 to 212 °C
84 | CCN(CC)CCN1C(=O)C(C)(C)N=C(c2ccccc2Cl)c2cc([N+](=O)[O-])ccc21 | 70 °C
85 | CS(=O)CC(=O)c1ccccc1N (stereo not drawn) | 99 to 100 °C
86 | CCC1COC(c2ccc(C#N)c(F)c2)OC1 (stereo not drawn) | 49 °C
87 | COc1nc(C)nc(NC(=O)NS(=O)(=O)c2ccccc2OCC2(C)OCCO2)n1 | 135 to 136 °C
88 | CCCC(=O)N(CC)c1cccc(-c2ccc3nnc(C)n3n2)c1 | 127 to 129 °C
89 | CC(C)c1csc(/C=C/c2cc(N)ccc2Cl)n1 | 82 to 85 °C
90 | CCCCc1cnc2ccc(C(=O)O)cc2c1O | 260 °C
91 | Cc1ccc(C2=NC(C)(C(C)C)C(=S)N2)cc1 (stereo not drawn) | 167 to 170 °C
92 | CCOc1ccc(F)cc1C1OC(=O)NC1=O (stereo not drawn) | 188 to 190 °C
93 | CCCN(c1nc(-c2ccc(OC)cc2Cl)c(C)s1)c1cc(N)ccc1OC | 89 °C
94 | Nc1ccc(C(=O)O)cc1S(N)(=O)=O | 214 to 219 °C
95 | CN(C)C=CC=C(C#N)c1cccnc1 | 117 to 120 °C
96 | O=C(Nc1cccnc1)N1CCN(c2cc(-c3cccc(F)c3)ncn2)CC1 | 205 to 206 °C
97 | COC(=O)C(C)=C1CCC2C3CCC4=CC(=O)CCC4(C)C3CCC12C (stereo not drawn) | 149 to 151 °C
98 | CC(Oc1c(-c2ccc(S(C)(=O)=O)cc2)cnn(CC(F)(F)F)c1=O)c1ccc(F)cc1 (stereo not drawn) | 133 to 135 °C
99 | Cc1c(NC(=O)c2ccc(OCc3ccccc3)cc2F)ccc2cc(CN3CCCC3)cnc12 | 176 to 177 °C
100 | CCCc1c(OCCCOc2ccc([C@H]3OC(=O)C[C@H]3C)cc2)ccc(C(C)=O)c1O | 88.5 to 89.5 °C
101 | COC(=O)c1cccc([N+](=O)[O-])c1C(=O)O | 166 to 168 °C
102 | CS(=O)(=O)c1ccc(-n2nc(C(F)(F)F)cc2-c2ccc(-c3ccsc3)cc2)cc1F | 72 to 74 °C
103 | NS(=O)(=O)c1ccc(-c2oc(Cl)nc2-c2ccccc2)cc1 | 158 to 159 °C
